First: Cc1nc(N2CCCC2=O)sc1C(=O)NCc1ccccc1 [Example 1, N-benzyl-4-methyl-2-(2-oxopyrrolidin-1-yl)thiazole-5-carboxamide]
Second: Cc1nc(N2CCCCC2=O)sc1C(=O)NCc1ccccc1 [Example 1.2, N-benzyl-4-methyl-2-(2-oxopiperidin-1-yl)thiazole-5-carboxamide]
The melting point of the first is higher: 222 to 224 °C for the first, 175 to 176 °C for the second.

First: Cc1nc(N2CCC(Cc3ccc(C(F)(F)F)cc3)C2=O)sc1C(=O)NCc1ccc(F)cc1 (stereo not shown) [Example 2, N-(4-fluorobenzyl)-4-methyl-2-(2-oxo-3-(4-(trifluoromethyl)benzyl)pyrrolidin-1-yl)thiazole-5-carboxamide]
Second: Cc1nc(N2CCC(Cc3ccc(OC(F)(F)F)cc3)C2=O)sc1C(=O)NCc1ccc(F)cc1 (stereo not shown) [Example 2.3, N-(4-fluorobenzyl)-4-methyl-2-(2-oxo-3-(4-(trifluoromethoxy)benzyl)pyrrolidin-1-yl)thiazole-5-carboxamide]
The melting point of the first is higher: 175 to 176 °C for the first, 165 to 166 °C for the second.

First: Cc1nc(N2CCC(Cc3ccc(F)cc3)C2=O)sc1C(=O)NCc1ccc(F)cc1 (stereo not shown) [Example 2.1, N-(4-fluorobenzyl)-2-(3-(4-fluorobenzyl)-2-oxopyrrolidin-1-yl)-4-methylthiazole-5-carboxamide]
Second: Cc1nc(N2CCC(NCc3ccc(F)cc3)C2=O)sc1C(=O)NCc1ccc(F)cc1 (stereo not shown) [Example 5.1, N-(4-fluorobenzyl)-2-(3-(4-fluorobenzylamino)-2-oxopyrrolidin-1-yl)-4-methylthiazole-5-carboxamide]
The melting point of the first is higher: 196 to 197 °C for the first, 123 to 124 °C for the second.

Compared with `Cc1nc(N2CCC(Cc3ccc(OC(F)F)cc3)C2=O)sc1C(=O)NCc1ccc(F)cc1` (stereo not shown) [Example 2.2, 2-(3-(4-(difluoromethoxy)benzyl)-2-oxopyrrolidin-1-yl)-N-(4-fluorobenzyl)-4-methylthiazole-5-carboxamide], `Cc1nc(N2CCC(Cc3ccc(OC(F)F)cc3)C2=O)sc1C(=O)NCc1ccccc1` (stereo not shown) [Example 2.5, N-benzyl-2-(3-(4-(difluoromethoxy)benzyl)-2-oxopyrrolidin-1-yl)-4-methylthiazole-5-carboxamide] is lower in melting point: 143 to 145 °C for the first, 132 to 133 °C for the second.

Compared with `Cc1nc(N2CCC(Cc3ccc(C(F)(F)F)cc3)C2=O)sc1C(=O)NCc1ccccc1` (stereo not shown) [Example 2.4, N-benzyl-4-methyl-2-(2-oxo-3-(4-(trifluoromethyl)benzyl)pyrrolidin-1-yl)thiazole-5-carboxamide], `Cc1nc(N2CCCC(Cc3ccc(C(F)(F)F)cc3)C2=O)sc1C(=O)NCc1ccccc1` (stereo not shown) [Example 2.6, N-benzyl-4-methyl-2-(2-oxo-3-(4-(trifluoromethyl)benzyl)piperidin-1-yl)thiazole-5-carboxamide] is higher in melting point: 174 to 175 °C for the first, 217 to 218 °C for the second.

First: Cc1ccc(CC2CCCN(c3nc(C)c(C(=O)NCc4ccccc4)s3)C2=O)cc1 (stereo not shown) [Example 2.7, N-benzyl-4-methyl-2-(3-(4-methylbenzyl)-2-oxopiperidin-1-yl)thiazole-5-carboxamide]
Second: Cc1nc(N2CCCC(Cc3ccc(F)cc3)C2=O)sc1C(=O)NCc1ccccc1 (stereo not shown) [Example 2.12, N-benzyl-2-(3-(4-fluorobenzyl)-2-oxopiperidin-1-yl)-4-methylthiazole-5-carboxamide]
The melting point of the first is lower: 110 to 113 °C for the first, 154 to 155 °C for the second.

Compared with `Cc1nc(N2CCCC(Cc3cccc(F)c3)C2=O)sc1C(=O)NCc1ccccc1` (stereo not shown) [Example 2.8, N-benzyl-2-(3-(3-fluorobenzyl)-2-oxopiperidin-1-yl)-4-methylthiazole-5-carboxamide], `Cc1nc(N2CCCC(Cc3ccccc3)C2=O)sc1C(=O)NCc1ccccc1` (stereo not shown) [Example 2.11, N-benzyl-2-(3-benzyl-2-oxopiperidin-1-yl)-4-methylthiazole-5-carboxamide] is lower in melting point: 170 to 171 °C for the first, 162 to 164 °C for the second.

First: COc1ccc(CC2CCCN(c3nc(C)c(C(=O)NCc4ccccc4)s3)C2=O)cc1 (stereo not shown) [Example 2.9, N-benzyl-2-(3-(4-methoxybenzyl)-2-oxopiperidin-1-yl)-4-methylthiazole-5-carboxamide]
Second: Cc1nc(N2CCCC(Cc3cccnc3)C2=O)sc1C(=O)NCc1ccccc1 (stereo not shown) [Example 11, N-benzyl-4-methyl-2-(2-oxo-3-(pyridin-3-ylmethyl)piperidin-1-yl)thiazole-5-carboxamide]
The melting point of the first is lower: 116 to 118 °C for the first, 140 to 141 °C for the second.

Compared with `Cc1nc(N2CCCC(Cc3cc(F)ccc3F)C2=O)sc1C(=O)NCc1ccccc1` (stereo not shown) [Example 2.10, N-benzyl-2-(3-(2,5-difluorobenzyl)-2-oxopiperidin-1-yl)-4-methylthiazole-5-carboxamide], `Cc1nc(N2CCCC(Cc3ccc(F)cc3)C2=O)sc1C(=O)NCc1cccc(F)c1` (stereo not shown) [Example 2.13, N-(3-fluorobenzyl)-2-(3-(4-fluorobenzyl)-2-oxopiperidin-1-yl)-4-methylthiazole-5-carboxamide] is higher in melting point: 144 to 145 °C for the first, 173 to 175 °C for the second.

First: Cc1nc(N2CCCC(Cc3ccc(C(F)(F)F)cc3)C2=O)sc1C(=O)NCc1cccc(F)c1 (stereo not shown) [Example 2.14, N-(3-fluorobenzyl)-4-methyl-2-(2-oxo-3-(4-(trifluoromethyl)benzyl)piperidin-1-yl)thiazole-5-carboxamide]
Second: Cc1nc(N2CCCC(NCc3ccc(C(F)(F)F)cc3)C2=O)sc1C(=O)NCc1ccccc1 (stereo not shown) [Example 5.3, N-benzyl-4-methyl-2-(2-oxo-3-(4-(trifluoromethyl)benzylamino)piperidin-1-yl)thiazole-5-carboxamide]
The melting point of the first is higher: 177 to 178 °C for the first, 39 to 40 °C for the second.

Compared with `Cc1nc(N2CCC(CC3CC3)C2=O)sc1C(=O)NCc1ccc(F)cc1` (stereo not shown) [Example 3, 2-(3-(cyclopropylmethyl)-2-oxopyrrolidin-1-yl)-N-(4-fluorobenzyl)-4-methylthiazole-5-carboxamide], `Cc1nc(N2CCC(NCCC3CC3)C2=O)sc1C(=O)NCc1ccc(F)cc1` (stereo not shown) [Example 5, 2-(3-(2-cyclopropylethylamino)-2-oxopyrrolidin-1-yl)-N-(4-fluorobenzyl)-4-methylthiazole-5-carboxamide] is lower in melting point: 153 to 155 °C for the first, 151 to 152 °C for the second.

First: Cc1nc(N2CCCC(CCc3ccccc3)C2=O)sc1C(=O)NCc1ccccc1 (stereo not shown) [Example 3.1, N-benzyl-4-methyl-2-(2-oxo-3-phenethylpiperidin-1-yl)thiazole-5-carboxamide]
Second: Cc1nc(N2CCCC(CCCc3ccccc3)C2=O)sc1C(=O)NCc1ccccc1 (stereo not shown) [Example 3.2, N-benzyl-4-methyl-2-(2-oxo-3-(3-phenylpropyl)piperidin-1-yl)thiazole-5-carboxamide]
The melting point of the first is lower: 124 to 126 °C for the first, 140 to 141 °C for the second.

First: Cc1nc(N2CCC(NCCC(F)(F)F)C2=O)sc1C(=O)NCc1ccc(F)cc1 (stereo not shown) [Example 5.2, N-(4-fluorobenzyl)-4-methyl-2-(2-oxo-3-(3,3,3-trifluoropropylamino)pyrrolidin-1-yl)thiazole-5-carboxamide]
Second: Cc1nc(N2CCC(Cc3ccc(F)cc3)C2=O)sc1C(=O)NCc1cccnc1 (stereo not shown) [Example 8, 2-(3-(4-fluorobenzyl)-2-oxopyrrolidin-1-yl)-4-methyl-N-(pyridin-3-ylmethyl)thiazole-5-carboxamide]
The melting point of the first is lower: 142 to 143 °C for the first, 169 to 170 °C for the second.

Compared with `Cc1nc(N2CCCC(NCC3CC3)C2=O)sc1C(=O)NCc1ccccc1` (stereo not shown) [Example 5.4, N-benzyl-2-(3-(cyclopropylmethylamino)-2-oxopiperidin-1-yl)-4-methylthiazole-5-carboxamide], `Cc1nc(N2C[C@@H](O)CC2=O)sc1C(=O)NCc1ccccc1` [Example 7, (S)-N-benzyl-2-(4-hydroxy-2-oxopyrrolidin-1-yl)-4-methylthiazole-5-carboxamide] is higher in melting point: 125 to 126 °C for the first, 203 to 204 °C for the second.

Compared with `Cc1nc(N2CC(Cc3ccccc3)CC2=O)sc1C(=O)NCc1ccccc1` (stereo not shown) [Example 6, N-benzyl-2-(4-benzyl-2-oxopyrrolidin-1-yl)-4-methylthiazole-5-carboxamide], `Cc1nc(N2C[C@H](O)CC2=O)sc1C(=O)NCc1ccccc1` [Example 7.1, (R)-N-benzyl-2-(4-hydroxy-2-oxopyrrolidin-1-yl)-4-methylthiazole-5-carboxamide] is higher in melting point: 143 to 144 °C for the first, 203 to 204 °C for the second.

First: Cc1nc(N2CCC(Cc3ccc(OC(F)(F)F)cc3)C2=O)sc1C(=O)NCc1cccnc1 (stereo not shown) [Example 8.1, 4-methyl-2-(2-oxo-3-(4-(trifluoromethoxy)benzyl)pyrrolidin-1-yl)-N-(pyridin-3-ylmethyl)thiazole-5-carboxamide]
Second: Cc1nc(N2CCC/C(=C\c3cccnc3)C2=O)sc1C(=O)NCc1ccccc1 [Example 10.2, N-benzyl-4-methyl-2-(2-oxo-3-(pyridin-3-ylmethylene)piperidin-1-yl)thiazole-5-carboxamide]
The melting point of the first is lower: 158 to 160 °C for the first, 206 to 208 °C for the second.

First: Cc1nc(N2CCCC(C(O)c3ccccc3)C2=O)sc1C(=O)NCc1ccccc1 (stereo not shown) [Example 10, N-benzyl-2-(3-(hydroxy(phenyl)methyl)-2-oxopiperidin-1-yl)-4-methylthiazole-5-carboxamide]
Second: CCc1ccc(/C=C2\CCCN(c3nc(C)c(C(=O)NCc4ccccc4)s3)C2=O)s1 [Example 10.1, N-benzyl-2-(3-((5-ethylthiophen-2-yl)methylene)-2-oxopiperidin-1-yl)-4-methylthiazole-5-carboxamide]
The melting point of the first is lower: 74 to 75 °C for the first, 171 to 172 °C for the second.
